Results from publication PMC4169579, “Proteolytic Activity of Prostate-Specific Antigen (PSA) towards Protein Substrates and Effect of Peptides Stimulating PSA Activity” (PLoS ONE, 2014).
Where two headings read alike, the source gives them in different places.

Columns and labels:
[1] = target: T1, PSA (Homo sapiens, UniProt P07288); assay: Enzyme kinetics of PSA with chromogenic peptide substrate S-2586; assay type: biochemical; conditions: S-2586 0.125–5 mM, 175 nM PSA, 0.1% BSA-TBS, room temperature, mean ± SD of two experiments
T1 construct: from tissue; host or cells: pooled human seminal fluid
Method: (§1) The major form of active PSA (isoform PSA-B) was purified from pooled human seminal fluid by immunoaffinity chromatography followed by anion exchange chromatography. Semenogelins I and II were isolated from human seminal fluid as previously described, but instead of alkylating the proteins, the reducing agent 30 mM dithiothreitol (Sigma-Aldrich, St. Louis, MO) was included in all buffers during purification. Semenogelins were stored in the purification buffer containing 2 M urea and 5 mM EDTA at −70°C. Prior to cleavage by PSA, the buffer was exchanged to 50 mM Tris, pH 7.7, containing 0.15 M NaCl (TBS), with Amicon Ultra centrifugal filter units (MW cut-off 30 kDa) (Millipore, Cork, Ireland) at 4°C, and protein concentration was determined by measuring absorbance at 280 nm.
The proteolytic activity of PSA towards small peptide substrates was compared with two different substrates. […] The absorbance was measured at 405 nm immediately and at 5 min intervals for 30 min and fluorescence at 355/460 nm (excitation/emission) after 10 min, 20 min, 40 min, 1 h, 2 h and 4 h incubation at room temperature with a Victor 1420 Multilabel plate reader (PerkinElmer). […]
The maximum velocity of the reaction (Vmax) and the Michaelis constant (Km), i.e., substrate concentration at which the reaction rate is half of the maximum, were evaluated for PSA with both peptide substrates using Sigma Plot 11 with the Enzyme Kinetics Module 1.3 (SYSTAT Software, Inc., San Jose, CA) and the catalytic constant (kcat), i.e., the number of substrate molecules converted to product per time unit, was calculated from the equation kcat = Vmax/[PSA]. The absorbance was converted to molar concentration with the Lambert-Beer equation (A = εcl), using the molar absorptivity of pNA (εpNA = 8800 M^−1cm^−1). Fluorescence (counts per second, cps) was transformed to molar concentrations with SigmaPlot by means of a standard curve for 7-amido-4-methylcoumarin (AMC, Sigma-Aldrich).

[2] = target: T1, PSA; conditions: ref [15], [47]; cited from earlier work
Source text: Previously, several selective and efficient substrates for PSA have been described. We used a fluorogenic peptide substrate identified by Denmeade and coworkers (1997). […] These differences may be explained by higher activity of the highly pu ...

[3] = target: T1, PSA; assay: Proteolytic cleavage of protein substrates by PSA (SDS-PAGE, silver staining); assay type: biochemical; conditions: 22 h incubation, 37°C, different plasminogen preparations and PSA batches
Method: as §1
Protein LoBind tubes (Eppendorf AG, Hamburg, Germany) were used in all protein degradation experiments.
PSA (0.2–1 µM) and 0.5–1 µM of each protein substrate were incubated at 37°C for 22 h in TBS buffer. During the incubation, samples of 15 µl were taken at different time points: 0 min, 10 min, 30 min, 2 h, 5 h and 22 h, and stored at −20°C before further analysis.
Immediately after each incubation, reducing 4× SDS-loading buffer (8% SDS), containing 1 M β-mercaptoethanol or 75 mM dithiothreitol, was added to each sample and proteins were denatured at 70°C for 10 min. The samples were immediately analyzed by SDS-PAGE or frozen at −20°C. Frozen samples were heated again at 70°C before loading on the gel. The cleavage of protein substrates by PSA, i.e., the disappearance of the full-length protein bands, was quantified from scanned images of silver stained gels by the measurement of relative optical densities of the protein bands using ImageJ [40]. […]
Proteins were visualized either by silver staining or Western blotting. […] After 30 min incubation in 0.2% AgNO3, the gel was rinsed briefly with water and proteins were detected with development solution, containing 700 µl/l of 37% formaldehyde, 0.001% sodium thiosulfate and 3% anhydrous Na2CO3. […]

[4] = target: T1, PSA; conditions: reported to inhibit angiogenesis in vitro; ref [20]; cited from earlier work
Method: In the present study, we compared the proteolytic activity of PSA towards several protein substrates. As shown previously, semenogelins are cleaved very effectively by PSA. Malm and coworkers (2000) reported that more than half of semenogelin I is degraded after 15 min incubation with PSA [16], [63] and we observed this after 11 min incubation. Proteolysis of the other protein substrates, i.e., fibronectin, IGFBP-3, galectin-3 and nidogen-1, took much longer, reflecting the high substrate specificity of PSA for semenogelins. […] However, the detailed mechanism of the antiangiogenic activity of PSA remains unclear. Some of the proteolytically produced fragments of extracellular matrix (ECM) proteins act as endogenous angiogenesis inhibitors and may mediate the antiangiogenic effect of PSA. […] Although plasminogen ...

[5] = test system: HUVECs; parameters: method as in PMID 10702407, PMID 20713592; conditions: full-length galectin-3; ref [55], [72]; cited from earlier work
[6] = test system: HUVECs; assay: HUVEC tube formation assay on Matrigel; assay type: cell-based, human; conditions: two separate experiments
Method: Human umbilical vein endothelial cells (HUVECs) were isolated from umbilical cord veins and grown in Endothelial Cell Growth Medium (Promocell, Heidelberg, Germany) with 2% Ultroser G BioSepra serum substitute (PALL BioSepra, Cergy, France) and growth factors EGF and bFGF. For tube formation, HUVECs were grown on top of Matrigel (BD Biosciences) as described previously, [29].
To study the effect of PSA-cleaved protein fragments, 0.08 µM nidogen-1 or 0.4 µM galectin-3 (10 µg/ml each) were first incubated with 1 µM PSA for 24 h at 37°C in PBS (Lonza). Then PSA activity was blocked by one-hour incubation at room temperature with 2 µM monoclonal antibody 5C7 [38]. The mixture containing nidogen-1 or galectin-3 fragments with PSA blocked by antibody or the same amount of intact nidogen-1 or galectin-3 were added together with the cells onto gelled Matrigel and the cells were allowed to form tubular networks for 20 h. Control wells contained either PBS or 1 µM PSA. After overnight incubation, cell culture medium was collected from PBS and PSA control wells for SDS-PAGE and Western blotting. Images of tubular networks (100×magnification) were taken using an Axiovert 200 inverted light microscope connected to an AxioCam digital camera and visualized by AxioVision software (all from Zeiss, Göttingen, Germany).

T1 sequence (P07288 25-261): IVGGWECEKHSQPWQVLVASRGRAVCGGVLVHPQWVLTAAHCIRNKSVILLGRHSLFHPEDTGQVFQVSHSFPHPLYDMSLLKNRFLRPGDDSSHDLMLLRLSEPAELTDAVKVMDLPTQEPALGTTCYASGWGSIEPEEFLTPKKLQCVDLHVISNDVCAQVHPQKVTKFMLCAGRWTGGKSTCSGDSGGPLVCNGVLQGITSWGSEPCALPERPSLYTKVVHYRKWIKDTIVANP

MeO-Suc-Arg-Pro-Tyr-pNA·HCl [Chromogenic substrate, chromogenic chymotrypsin substrate S-2586]
Km ([1]; 405 nm, 5 min intervals for 30 min): 5.72 ± 1.53 mM | kcat/Km [1]: 133.4±24.6 s^−1M^−1 | kcat ([1]; kcat = Vmax/[PSA]): 0.75 ± 0.07 s⁻¹ | kcat/Km reported previously, compared to this study [2]: somewhat lower than that we observed

plasminogen: plasminogen (Calbiochem and Hyphen BioMed) and lys-plasminogen from human plasma
cleavage of plasminogen by PSA [3]: PSA did not cleave plasminogen | cleavage of plasminogen by PSA [4]: cleave plasminogen to angiostatin-like fragments

galectin-3: recombinant human galectin-3
angiogenesis [5]: promote angiogenesis | effect on tube formation, PSA-generated fragments ([6]; 10 µg/ml (0.08 µM nidogen-1, 0.4 µM galectin-3) precleaved by 1 µM PSA 24 h, PSA blocked by mAb 5C7, 20 h): did not have any effect on tube formation | effect on tube formation, full-length protein ([6]; 10 µg/ml (0.08 µM nidogen-1, 0.4 µM galectin-3), 20 h, HUVECs on Matrigel): did not have any effect on tube formation
